{"source": "ChEMBL document CHEMBL1158799", "about": "“The transgenic Arabidopsis plant system, pER8-GFP, as a powerful tool in searching for natural product estrogen-agonists/antagonists” (J Nat Prod, 2005)", "key": {"[1]": {"biological_target": "T1, Estrogen receptor (Homo sapiens) (UniProt P03372)", "T1 sequence (whole entry)": "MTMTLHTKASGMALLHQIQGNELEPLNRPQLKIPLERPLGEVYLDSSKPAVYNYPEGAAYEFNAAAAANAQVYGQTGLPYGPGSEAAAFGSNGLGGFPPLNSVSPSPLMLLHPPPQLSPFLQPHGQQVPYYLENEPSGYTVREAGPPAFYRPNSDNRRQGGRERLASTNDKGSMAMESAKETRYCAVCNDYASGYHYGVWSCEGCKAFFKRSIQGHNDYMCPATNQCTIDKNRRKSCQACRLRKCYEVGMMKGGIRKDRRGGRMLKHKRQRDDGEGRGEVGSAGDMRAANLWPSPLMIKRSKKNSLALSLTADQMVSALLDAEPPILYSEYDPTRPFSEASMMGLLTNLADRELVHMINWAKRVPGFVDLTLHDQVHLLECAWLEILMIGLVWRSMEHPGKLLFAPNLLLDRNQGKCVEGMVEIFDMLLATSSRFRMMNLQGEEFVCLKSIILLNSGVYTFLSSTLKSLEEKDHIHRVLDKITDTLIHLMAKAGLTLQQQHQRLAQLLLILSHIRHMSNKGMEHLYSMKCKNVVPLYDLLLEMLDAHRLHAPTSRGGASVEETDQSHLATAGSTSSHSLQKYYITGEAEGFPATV", "test": "Activity at human estrogen receptor expressed in transgenic Arabidopsis plant at >100 ug/mL by pER8-GFP reporter assay"}, "[2]": {"biological_target": "T1, Estrogen receptor (Homo sapiens)", "test": "Activity at human estrogen receptor expressed in transgenic Arabidopsis plant at >100 uM by pER8-GFP reporter assay"}, "[3]": {"biological_target": "T1, Estrogen receptor (Homo sapiens)", "test": "Activity at human estrogen receptor expressed in transgenic Arabidopsis plant at >10 uM by pER8-GFP reporter assay"}}, "note": "Activity calls are given as the source filed them. No cut-off for these calls is given here.", "data": [{"molecule": "O=c1c(-c2ccc(O)cc2)coc2c([C@@H]3O[C@H](CO)[C@@H](O)[C@H](O)[C@H]3O)c(O)ccc12", "values": [{"measurement": "Activity", "setting": "[1]", "value": "Active"}]}, {"molecule": "O=C1C=CC(O)(c2cc(=O)c3c(O)cc(O)cc3o2)C=C1", "values": [{"measurement": "Activity", "setting": "[2]", "value": "Active"}]}, {"molecule": "C[C@]12CC[C@H]3[C@@H](CCC4=CC(=O)CC[C@@]43C)[C@@H]1CC[C@@H]2O", "values": [{"measurement": "Activity", "setting": "[3]", "value": "Active"}]}]}
